Values joined by “and” are separate entries in the source; they are usually repeats but may differ in a detail not shown here. Identical values can stand only once. “Also recorded” adds a separate entry of the source.
Experiments:
[1] = tested on: ticks; conditions: pour on; high tick site; cited from earlier work
[2] = Hen survival of treated and control red grouse hens; format: in vivo, red grouse (Lagopus lagopus scoticus); conditions: for % hens alive after 6 months: alive in October
Protocol: (§1) The experiment was conducted on two sites located in the North of Scotland (March-October). In outline, on each Moor, hens were either treated with permethrin leg bands or with untreated band. After hatching, chicks from treated hens were also tagged and treated with permethrin partagial bands, while chicks from control brood were tagged but not treated with permethrin. The experiment was conducted on Tullybeagles Estate in Perthshire (hereafter referred as to Moor 1) and Forest of Birse Estate on Deeside (hereafter Moor 2). Both Moors are managed for grouse (heather burning, predator control, worm control) and had low grouse densities and low productivity in recent years.
(§2) Catching and treatment of hens. In spring (18 March-6 April), 40 hens were caught on Moor 1 and 20 on Moor 2. Each was randomly assigned to one of two treatments. Half the birds caught at each site were treated (i.e., given acaracide leg bands, two per bird), or kept as control (untreated bands). Hens were fitted with radio collars (TW-3, Biotrack) to facilitate relocation. Birds were aged, weighed, wing length measured and condition score recorded. All hens were dosed with anthelminthic (Levamisole hydrochloride 3%) to remove nematode parasites. Nematodes are well known for their negative effects on grouse breeding success and survival (Hudson, 1986), so removing them standardized the birds for this possible source of variation.

[3] = tested on: ticks; experiment: Tick infestation of red grouse chicks after permethrin band treatment of hens and chicks (field experiment, two Moors); format: in vivo, Ixodes ricinus
Protocol: This experiment assessed the effect of ticks on grouse productivity. The experiment was replicated in two sites located in NE Scotland and Perthshire. On each Moor, hens were either treated with permethrin leg bands or with untreated bands. After hatching, chicks from treated hens were also treated and tagged with a permethrin band attached to a metal patagial tag, while chicks from control broods were tagged with only the metal patagial tags.
as §1, §2
(§3) Brood survival to 2 weeks +/−5 days and treatment of chicks. Hens were located by radio tracking and pointer dogs were used to locate chicks. As many chicks as possible were captured. […] Brood survival to 1 month days +/−5 days. Hens were located by radio tracking and pointer dogs were used to locate chicks. As many chicks as possible were captured. […] length and tick counts (around head and neck area) were recorded. A blood sample was collected in EDTA coated eppendorfs. At 1 month, because it was difficult to ensure that all the chicks were found during daytime visits with dogs, we also located hens and broods at night by radio tracking and broods were counted using lamp. This provided the best estimate of brood size at 1 month, which was used in subsequent analyses.
(§4) Statistical analyses. Tick numbers were modeled using generalized linear mixed models with brood as a random effect and using a poisson error distribution. Tick burdens are known to be much less variable within broods than between broods (Elston et al., 2001). The seasonal pattern was investigated by fitting time as julian day (days from 1st January) and the asymptotic pattern in the data was captured using a quadratic function of julian day (julian day*julian day). The interaction between time and treatment was used to determine if the pattern of tick burden varied between treatments. The relationship between tick burden and age was investigated using chick age as number of days post hatching and the quadratic function of chick age to investigate if there was a significant asymptotic relationship between average brood tick abundance and chick age (a rise and fall in tick numbers in relation to age). Hatching success was modeled using logistic regression (binomial error structure) with the proportion of eggs that hatched as a proportion of the total clutch size as the response variable. Brood survival was modeled using logistic regression (binomial error structure) with the proportion of chicks alive as a proportion of the number of chicks that hatched as the response variable. […]

[4] = Breeding success, brood size, chick survival and chick growth of red grouse (treated vs control hens/broods); format: in vivo, red grouse (Lagopus lagopus scoticus); conditions: for Breeding success (%): only hens alive at the end of breeding season
Protocol: as §1, §2
Laying time. Nests were located by radio tracking and their location recorded using GPS. Clutch size was measured, and all eggs were weighed (with an electronic balance, to the nearest 0.1 g) and measured (length by width, with a caliper, to the nearest 0.1 mm). Egg density was used to estimate hatch dates (see Seivwright, 2004). If clutches were incomplete at first visit, nests were revisited.
Hatching success. Around predicted hatch date (from egg measurements), nests were located using GPS and number of hatched and un-hatched eggs were recorded. Broods were located by radio-tracking hens and chicks were found and counted with the aid of trained pointer dogs.
as §3
Brood size at fledging. Hens were located at around 45 days post hatching. Broods were then flushed and number of chicks was counted.
as §4, with “age).” for “age). Hatching success was modeled using logistic regression (binomial error structure) with the proportion of eggs that hatched as a proportion of the total clutch size as the response variable. Brood survival was modeled using logistic regression (binomial error structure) with the proportion of chicks alive as a proportion of the number of chicks that hatched as the response variable.”

In the case of CC1(C)[C@H](C(=O)O[C@H](C#N)c2cccc(Oc3ccccc3)c2)[C@@H]1C=C(Br)Br [deltamethrin], the “duration of short term effects” value [1] is given as “up to 20 days” and the “time by which the effect had waned” value [1] is given as ≤ 40 days.
In the case of CC1(C)C(C=C(Cl)Cl)C1C(=O)OCc1cccc(Oc2ccccc2)c1 (stereo not drawn) [permethrin], the “% hens alive after 6 months” value ([2]; Moor 1, treated hens) is reported as 68.4% and 60%, the “% hens alive after 6 months” value ([2]; Moor 2, treated hens) is reported as 60% and 68% and the “hen survival, treated compared with control hens” value ([2]; overall, FIG. 6) is reported as “did not differ”. For the same molecule, the “tick infestation rates of treated chicks compared with untreated chicks from treated mothers” value ([3]; across season, FIG. 1) was “significantly lower”, the “number of chicks with patagial treatment band found with ticks” value ([3]; chicks carrying patagial band) was “one” and the “average tick counts on treated chicks compared with control chicks” value ([3]; chicks with permethrin patagial band, taking into account seasonal pattern, FIG. 1) was “significantly lower”. For the same molecule, the “average ticks per chick in untreated chicks from treated hens compared with control broods” value ([3]; hen treatment only (leg bands), across the season, FIG. 1) was “significantly lower”, the “tick infestation in untreated chicks from treated hens compared with controls in relation to chick age” value ([3]; hen treatment only, by chick age, FIG. 2) was “significantly lower” and the “tick infestation levels in untreated chicks from treated hens” value ([3]; hen treatment only, discussion summary) was “very low”. The “peak tick numbers in untreated chicks from treated hens relative to controls” value ([3]; hen treatment only, fraction of that found in controls) was “about one third”, the “peak tick numbers in untreated chicks from treated hens” value ([3]; hen treatment only, seasonal pattern) was “around 4 ticks per chick” and the “tick infestation rates of treated chicks compared with untreated chicks from treated mothers” value ([3]; in relation to chick age) was “no significant difference”. The “maximum mean infestation rate in the treated group” value ([3]; treated chicks, age 0 to 55 days, FIG. 2, control around 12) was “less than 2 ticks per chick”, the “tick numbers of treated chicks compared with controls in relation to age” value ([3]; treated chicks, age range 0 to 55 days, FIG. 2) was “significantly lower” and the “tick infestation after directly treating chicks with acaracide” value ([3]; treated chicks, discussion summary) was “negligible levels”. The “peak average tick numbers per chick in the treated group” value ([3]; treated chicks, seasonal pattern, FIG. 1, control peak around 13) was 2 ticks per chick per brood, the “effect of treatment on growth (wing length or body mass) of chicks” value ([4]; Moor 1 & 2 combined, FIG. 4) was “no effect; also recorded: did not differ” and the “Breeding outcome (success %)” value ([4]; Moor 1, treated) was “(21.5%)”. For the same molecule, the “Breeding outcome = Total number of young fledged” value ([4]; Moor 1, treated) was 40, the “Brood size at 1 month” value ([4]; Moor 1, treated) was 3.6 ± 2.9 and the “Brood size at 2 weeks” value ([4]; Moor 1, treated) was 6.0 ± 2.7. The “Brood size at fledging” value ([4]; Moor 1, treated) was 2.7 ± 2.9, the Hatched brood size ([4]; Moor 1, treated) was 8.5 ± 3.2 and the “Breeding success (%)” value ([4]; Moor 1, treated) was 35.9 ± 27.2%. The “Breeding outcome (success %)” value ([4]; Moor 2, treated) was “(10.9%)”, the “Breeding outcome = Total number of young fledged” value ([4]; Moor 2, treated) was 5 and the “Brood size at 1 month” value ([4]; Moor 2, treated) was 2.0 ± 2.0. The “Brood size at 2 weeks” value ([4]; Moor 2, treated) was 3.4 ± 1.0, the “Brood size at fledging” value ([4]; Moor 2, treated) was 1.0 ± 1.2 and the Hatched brood size ([4]; Moor 2, treated) was 8.1 ± 2.4. For the same molecule, the “Breeding success (%)” value ([4]; Moor 2, treated) was 12.8 ± 13.7%, the “effect of hen treatment on number of eggs that hatched as a proportion of the clutch size (hatching success)” value ([4]; both Moors) was “no effect” and the “effect of treatment on brood size at 1 month of age” value ([4]; both Moors) was “no effect”. The “effect of treatment on brood size at 2 weeks of age” value ([4]; both Moors) was “no effect”, the “effect of treatment on brood size at fledging” value ([4]; both Moors, late July) was “no effect” and the “effect of treatment on chick survival rates” value ([4]; discussion summary) was “no effect”. The “hatched chicks alive at approximately 2 weeks of age” value ([4]; treated group (CL=57-71%), control 58%) was 65%.
